Values quoted from earlier work in patent US6833085B2, “Agent for restricting elution of phosphorus, method for producing the same, and method of restricting elution of phosphorus in sludge” (priority 2003, dated 2004).
Read-outs that look alike come from different tables or passages of the source.

Settings: for Amount of diluted phosphorus: aqueous solution added into sludge

O=[N+]([O-])[O-].O=[N+]([O-])[O-].[Ca+2] [Calcium nitrate, calcium nitrate]
Amount of diluted phosphorus (concentration 0.35%): 67 µg/L | Amount of diluted phosphorus (concentration 0.70%): 13 µg/L | Inhibition of elution of phosphorus (injecting a 0.7% aqueous solution): 98%

[Cl][Fe]([Cl])[Cl] [Ferric chloride, ferric chloride]
Amount of diluted phosphorus (concentration 0.16%): 234 µg/L | Amount of diluted phosphorus (concentration 0.32%): 402 µg/L

alum
Amount of diluted phosphorus (concentration 0.21%): 407 µg/L | Amount of diluted phosphorus (concentration 0.42%): 490 µg/L
